Data: BindingDB's records for doi:10.1016/j.chembiol.2005.02.004 (Purdue University, 2005)
Numbered stars: 1 amine (or outer) side, 2 acyl side, 3 side chain; on linkers, the order of the positions; unused ones are H or OH. Bridge positions count the residues as written; N and C are the ends. Square brackets hold non-standard residues; d marks the D form. Peptide text beside a SMILES is read from it. I, II: the chains in the order shown. * marks the point of attachment. C16 diacid = O=C(O)CCCCCCCCCCCCCCC(=O)*; X1 = NC(O)C[C@H](N[*:1])C(=O)[*:2]

How the values were obtained:
[1] = biological target: T1, Capsid scaffolding protein (Human herpesvirus 1 (strain 17), UniProt P10210); assay: Competitive Assay; conditions: pH 5.52
T1 sequence (P10210 whole entry): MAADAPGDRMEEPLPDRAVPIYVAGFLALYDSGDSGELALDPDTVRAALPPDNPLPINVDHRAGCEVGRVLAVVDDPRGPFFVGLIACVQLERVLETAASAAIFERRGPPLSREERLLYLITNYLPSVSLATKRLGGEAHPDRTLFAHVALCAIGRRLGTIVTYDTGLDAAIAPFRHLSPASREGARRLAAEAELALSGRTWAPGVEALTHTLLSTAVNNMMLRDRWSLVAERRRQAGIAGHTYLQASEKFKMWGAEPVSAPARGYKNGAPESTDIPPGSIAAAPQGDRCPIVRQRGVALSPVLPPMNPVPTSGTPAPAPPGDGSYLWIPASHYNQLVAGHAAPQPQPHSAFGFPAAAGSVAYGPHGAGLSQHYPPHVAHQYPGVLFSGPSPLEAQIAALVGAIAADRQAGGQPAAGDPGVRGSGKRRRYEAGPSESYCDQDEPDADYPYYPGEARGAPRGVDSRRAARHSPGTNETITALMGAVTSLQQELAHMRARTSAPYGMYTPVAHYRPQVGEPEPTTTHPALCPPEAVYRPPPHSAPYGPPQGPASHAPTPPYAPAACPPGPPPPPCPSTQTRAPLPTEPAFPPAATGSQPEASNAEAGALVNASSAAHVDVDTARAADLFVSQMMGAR
Description: The competitive assay requires two inhibitors to act by a purely competitive mechanism, whereas the binding site of on the inhibitors has been established.

[2] = biological target: T1, Capsid scaffolding protein; assay: Zhang-Poorman Assay; conditions: pH 5.52

SMILES	IC50 [1] [µM]	IC50 [2] [µM]	Ki [2] [µM]	Ki [1] [µM]
CC(C)C[C@H](NC(=O)[C@@H](NC(=O)CCCCCCCCCCCCCCC(=O)N[C@H](CC(N)=O)C(=O)N[C@@H](Cc1ccccc1)C(=O)O)C(C)O)C(=O)NCCc1ccccc1 (stereo partly specified) [Pepstatin analog, 3]	5.8	–	–	–
CC(C)C[C@@H](NC(=O)[C@H](NC(=O)CCCCCCCCCCCCCCC(=O)N[C@H](CC(N)=O)C(=O)N[C@@H](Cc1ccccc1)C(=O)O)C(C)O)C(=O)NCCc1ccc(O)c(O)c1 (stereo partly specified) [Pepstatin analog, 8]	–	2.9	0.6	–
COc1ccc(CCNC(=O)[C@@H](CC(C)C)NC(=O)[C@H](NC(=O)CCCCCCCCCCCCCCC(=O)N[C@H](CC(N)=O)C(=O)N[C@@H](Cc2ccccc2)C(=O)O)C(C)O)cc1OC (stereo partly specified) [Pepstatin analog, 9]	–	4.3	–	–
CC[C@H](C)[C@H](NC(=O)[C@H](CCC(N)=O)NC(=O)[C@@H]1CCCN1C(=O)CCCCCCCCCCCCCCC(=O)N[C@@H](CO)C(=O)N[C@H](C(=O)N[C@H](C(=O)N[C@@H](CC(N)O)C(=O)N[C@@H](Cc1ccccc1)C(=O)O)C(C)C)[C@@H](C)O)C(=O)N[C@H](C(=O)N[C@@H](CC(C)C)C(=O)N[C@@H](Cc1c[nH]c2ccccc12)C(=O)O)[C@@H](C)O (stereo partly specified) [Pepstatin analog, 1] (I: PQITLW-OH / II: STV[X1]F-OH; linker I:N-II:N via C16 diacid)	0.35	–	–	0.22
CC(C)C[C@@H](NC(=O)[C@H](NC(=O)CCCCCCCCCCCCCCC(=O)N[C@H](CC(N)=O)C(=O)N[C@@H](Cc1ccccc1)C(=O)O)C(C)O)C(=O)NCCc1cccc(O)c1 (stereo partly specified) [Pepstatin analog, 4]	4.4	–	–	1.13
CC(C)C[C@@H](NC(=O)[C@H](NC(=O)CCCCCCCCCCCCCCC(=O)N[C@H](CC(N)=O)C(=O)N[C@@H](Cc1ccccc1)C(=O)O)C(C)O)C(=O)NCCc1ccc(N)cc1 (stereo partly specified) [Pepstatin analog, 10]	–	2.5	0.65	–
CC(C)C[C@@H](NC(=O)[C@H](NC(=O)CCCCCCCCCCCCCCC(=O)N[C@H](CC(N)=O)C(=O)N[C@@H](Cc1ccccc1)C(=O)O)C(C)O)C(=O)NCCc1ccc(Oc2ccccc2)cc1 (stereo partly specified) [Pepstatin analog, 11]	–	0.73	0.175	–
COc1ccc(CCNC(=O)[C@@H](CC(C)C)NC(=O)[C@H](NC(=O)CCCCCCCCCCCCCCC(=O)N[C@H](CC(N)=O)C(=O)N[C@@H](Cc2ccccc2)C(=O)O)C(C)O)cc1 (stereo partly specified) [Pepstatin analog, 7]	–	2.7	0.72	–
COc1cccc(CCNC(=O)[C@@H](CC(C)C)NC(=O)[C@H](NC(=O)CCCCCCCCCCCCCCC(=O)N[C@H](CC(N)=O)C(=O)N[C@@H](Cc2ccccc2)C(=O)O)C(C)O)c1 (stereo partly specified) [Pepstatin analog, 5]	4.9	–	–	1.29
CC(C)C[C@@H](NC(=O)[C@H](NC(=O)CCCCCCCCCCCCCCC(=O)N[C@H](CC(N)=O)C(=O)N[C@@H](Cc1ccccc1)C(=O)O)C(C)O)C(=O)NCCc1ccc(Oc2ccc(O)cc2)cc1 (stereo partly specified) [Pepstatin analog, 12]	–	0.36	0.096	–
CC(C)C[C@@H](NC(=O)[C@H](NC(=O)CCCCCCCCCCCCCCC(=O)N[C@H](CC(N)=O)C(=O)N[C@@H](Cc1ccccc1)C(=O)O)C(C)O)C(=O)NCCc1ccc(O)cc1 (stereo partly specified) [Pepstatin analog, 6]	–	5.8	–	–
CC(C)C[C@H](NC(=O)[C@@H](NC(=O)CCCCCCCCCCCCCCC(=O)N[C@H](CC(N)=O)C(=O)N[C@H](Cc1ccccc1)C(=O)O)C(C)O)C(=O)N[C@@H](Cc1ccccc1)C(N)=O (stereo partly specified) [Pepstatin analog, 2]	5.9	–	–	3
